From patent US6960594B2, “Thiophene and furan 2,5-dicarboxamides useful in the treatment of cancer” (Shire BioChem Inc., priority 1998, dated 2005)
“And” between values parts separate entries of the source, which are not always exact repeats. Identical values can stand only once.

Assays:
[1] = tested on: Human non small-cell lung cancer cell line H460; assay: Inhibition of metastasis in angiomouse/metamouse human lung cancer model of H460; type: in vivo, athymic BALB/c nude mice
Protocol: Male and female athymic BALB/c nude mice between 4 and 5 weeks of age were used. The animals were bred and maintained in an HEPA-filtered environment with cages, food and bedding sterilized by autoclaving. The breeding pairs were obtained from the Charles River Laboratories (Wilmington, Mass.). The animal diets were obtained from Harlan Teklab (Madison, Wis.). Ampicillin (Sigma, St Louis, Mo.) 5.0% (v/v) was added to the autoclaved drinking water.
Compound VII was tested and AGM-1470 (chloroacetyl-(3R,4S,5S,6R)-5-methoxy-4-[(2R,3R)-2-methyl-3-(3-methyl-2-butenyl)oxiranyl]-1-oxaspiro[2.5]oct-6-yl ester carbamic acid) was used as a positive control. [drawing 51] The compounds were dissolved using PEG400 with heating and sonicatin. The solutions were then diluted with saline to obtain the desired concentrations (30%/70%) and stored at −20° C.
Human non small-cell lung cancer cell line H460 with expression of green fluorescent protein was obtained from the National Cancer Institute. The cells were transfected with vectors carrying the green fluorescent protein (GFP) gene. The cell line was propagated by subcutaneous implantation in nude mice.
Test animals were transplanted by surgical orthotopic implantation (SOI) using fragments harvested from subcutaneaous tumor stock animals. The animals were anesthetized with isoflurane and the surgical area was sterilized using iodine solution and alcohol. A left thoracotomy was made along the 4th intercostal space using a pair of scissors. Two pieces of H460 tumor tissue of one cubic millimiter each were sutured to the left lung using an 8-0 nylon surgical suture. The thorax was closed using a sterile 6-0 silk suture. A sterile 3-cc syringe with a 25-gauge needle was used to remove the air and inflate the lung. All surgical and animal manipulations and procedures were conducted under HEPA-filtered laminar flow hoods.
Extra numbers of mice were transplanted to compensate for postsurgical losses. The orthotopically transplanted animals used were selected to establish groups of similar mean body weight. Groups for each of the cohort conditions wre randomly chosen. The cohort was grouped as follows. A total of 10 mice were used for each dosage regimen. Administration of test compounds and vehicle by subcutaneous injection was begun three days after the orthotopic implantation.
Two animals for each treatment group were sacrificed at day-14 after orthotopic implantation of H460. The remaining animals for each group were sacrificed at day-28 after implantation. The sacrificed animals were evaluated for primary and secondary tumors. Gross examination for distant metastasis was conducted at necropsy. Tissue samples of the primary tumor and those from relevant organs such as the lung, the liver and the lymph nodes wre processed through standards procedures of hematoxylin and eosin staining for subsequent microscopic examination.
The mediastinal lymph nodes, the liver and the lung in each animal were collected. The sampled tissues were sectioned and stained, then microscopically examined. The fisher-exact test was performed to compare distant metastasis to these organs in the treated and the controls. […]

αvβ5 = molecular target: T1, αvβ5 (Homo sapiens, UniProt P06756+P18084); assay: Cell adhesion assay, HT29 on vitronectin; type: cell-based
T1 construct: Cells HT29, K562, or K562 transfected with αvβ3; endogenous in cells; host or cells: HT29
Protocol: The wells of 96-well plates (Immunolon) were coated, by incubation overnight at 4° C., with 5 ug/mL vitronectin, 2 ug/mL osteopontin, or fibronectin or 10 mg/mL BSA in PBS. The protein solution was flicked out and the wells were blocked with 10 mg/mL BSA (0.1 mL) for 1-2 hours at 37° C. […] Cells were lifted with trypsin-EDTA and washed two times with Hank's balanced salt solution minus cations (Sigma) supplemented with 1 mM MgCl2 Cells (75,000 cells/well) were added to coated plates in triplicate and allowed to attach at 37° C. for 1 hour in the presence or absence of specific antibodies (5 ug/mL) or 10-fold dilutions of compounds of interest starting at 10 uM. Nonadherent cells were removed by gentle washing twice with PBS. The adherent cells were solubilized with 1% triton x-100 and detected using a fluorescence plate reader (DYNEX Technologies). The number of attached cells was calculated based upon standard curves for each cell line used in the experiment.

placental αvβ3 = molecular target: T2, placental αvβ3 (Homo sapiens, UniProt P05106+P06756); assay: Fibrinogen binding to immobilized αvβ3
T2 construct: placental αvβ3 at 0.5 ug/mL; from tissue; host or cells: placenta
Protocol: The wells of plastic microtiter plates were coated overnight at 4° C. with purified active αIIbβ3 (Calbiochem) or placental αvβ3 at 0.5 ug/mL (100 uL/well) in a buffer containing 150 mM NaCl, 20 mM Tris, pH 7.4, 1 mM MgCl2, 0.2 mM MnCl2, and including 1 mM CaCl2 for αIIbβ3. Blocking of nonspecific sites was achieved by incubating the wells with 35 mg/mL bovine serum albumin (BSA) for at least 2 hours at 37° C. Biotinylated-fibrinogen (10 nM) was added in 0.2 mL binding buffer (100 mM NaCl, 50 mM Tris, pH 7.4, 1 mM MgCl2, 0.2 mM MnCl2 and 1 mg/mL BSA including 1 mM CaCl2 for αIIbβ3) to the wells in triplicate in the absence or presence of increasing concentrations of compounds of interest (0.001-100 uM) and further incubated for 2 hours at 37° C. Nonbound fibrinogen was removed by five washes with binding buffer. Avidin conjugated to alkaline phosphatase (Sigma), diluted in binding buffer, was added and incubated for two hours at 37° C. The plates were washed five times with binding buffer, and after addition of the substrate PNPP (Pierce), the enzyme activity was measured by the absorbance at 405 nm.

[2] = Group C, 5 mg/kg SC 2 times/day

T2 sequence (P06756 31-889 limits assumed): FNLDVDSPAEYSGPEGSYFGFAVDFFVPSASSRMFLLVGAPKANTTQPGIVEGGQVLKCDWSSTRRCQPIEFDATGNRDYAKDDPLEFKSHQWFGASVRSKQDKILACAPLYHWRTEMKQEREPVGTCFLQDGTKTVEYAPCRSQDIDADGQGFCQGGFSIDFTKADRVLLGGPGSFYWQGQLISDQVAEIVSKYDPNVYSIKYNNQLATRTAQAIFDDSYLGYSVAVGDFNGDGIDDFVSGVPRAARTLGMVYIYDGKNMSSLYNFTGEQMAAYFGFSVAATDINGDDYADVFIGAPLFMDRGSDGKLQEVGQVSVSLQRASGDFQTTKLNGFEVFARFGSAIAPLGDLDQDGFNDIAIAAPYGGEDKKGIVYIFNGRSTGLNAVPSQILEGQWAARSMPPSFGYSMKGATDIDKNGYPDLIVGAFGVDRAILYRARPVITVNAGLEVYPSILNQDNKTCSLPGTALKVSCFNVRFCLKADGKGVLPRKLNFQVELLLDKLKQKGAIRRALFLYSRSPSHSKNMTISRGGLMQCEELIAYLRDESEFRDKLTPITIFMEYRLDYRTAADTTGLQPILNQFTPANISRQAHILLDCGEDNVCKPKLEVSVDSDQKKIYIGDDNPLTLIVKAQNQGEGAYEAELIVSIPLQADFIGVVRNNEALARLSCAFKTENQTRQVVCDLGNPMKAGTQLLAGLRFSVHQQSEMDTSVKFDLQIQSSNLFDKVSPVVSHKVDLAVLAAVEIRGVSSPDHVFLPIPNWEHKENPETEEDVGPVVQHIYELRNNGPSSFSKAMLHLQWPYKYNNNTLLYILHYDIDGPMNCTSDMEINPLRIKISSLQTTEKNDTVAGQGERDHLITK
T2 sequence (P06756 891-1048 partner limits assumed): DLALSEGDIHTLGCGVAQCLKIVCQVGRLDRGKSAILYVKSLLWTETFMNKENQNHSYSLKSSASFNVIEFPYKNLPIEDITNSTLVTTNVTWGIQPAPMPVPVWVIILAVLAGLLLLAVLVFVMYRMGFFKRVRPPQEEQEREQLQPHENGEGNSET
T2 sequence (P05106 27-788): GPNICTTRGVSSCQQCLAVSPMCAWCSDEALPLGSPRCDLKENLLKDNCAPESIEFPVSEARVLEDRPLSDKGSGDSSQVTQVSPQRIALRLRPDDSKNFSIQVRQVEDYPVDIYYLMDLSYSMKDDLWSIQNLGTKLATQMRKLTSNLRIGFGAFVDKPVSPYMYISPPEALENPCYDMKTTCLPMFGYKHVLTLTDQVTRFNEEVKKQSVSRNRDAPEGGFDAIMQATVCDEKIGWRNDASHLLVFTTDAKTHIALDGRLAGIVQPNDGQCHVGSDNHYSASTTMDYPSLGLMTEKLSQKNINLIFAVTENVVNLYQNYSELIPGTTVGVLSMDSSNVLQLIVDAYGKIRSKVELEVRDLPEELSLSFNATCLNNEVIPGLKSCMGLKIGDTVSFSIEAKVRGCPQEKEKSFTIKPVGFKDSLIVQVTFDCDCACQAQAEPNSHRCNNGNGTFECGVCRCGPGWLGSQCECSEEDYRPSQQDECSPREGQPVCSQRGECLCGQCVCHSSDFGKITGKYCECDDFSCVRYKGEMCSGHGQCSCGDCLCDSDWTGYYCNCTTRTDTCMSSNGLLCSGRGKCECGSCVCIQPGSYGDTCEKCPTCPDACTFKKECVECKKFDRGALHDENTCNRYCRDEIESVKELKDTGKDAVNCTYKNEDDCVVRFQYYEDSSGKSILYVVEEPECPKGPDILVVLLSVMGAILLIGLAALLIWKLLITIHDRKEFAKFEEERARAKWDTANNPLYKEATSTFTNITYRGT
T1 sequence (P06756 31-889 limits assumed): as the sequence (P06756 31-889 limits assumed) above
T1 sequence (P06756 891-1048 partner limits assumed): as the sequence (P06756 891-1048 partner limits assumed) above
T1 sequence (P18084 24-799): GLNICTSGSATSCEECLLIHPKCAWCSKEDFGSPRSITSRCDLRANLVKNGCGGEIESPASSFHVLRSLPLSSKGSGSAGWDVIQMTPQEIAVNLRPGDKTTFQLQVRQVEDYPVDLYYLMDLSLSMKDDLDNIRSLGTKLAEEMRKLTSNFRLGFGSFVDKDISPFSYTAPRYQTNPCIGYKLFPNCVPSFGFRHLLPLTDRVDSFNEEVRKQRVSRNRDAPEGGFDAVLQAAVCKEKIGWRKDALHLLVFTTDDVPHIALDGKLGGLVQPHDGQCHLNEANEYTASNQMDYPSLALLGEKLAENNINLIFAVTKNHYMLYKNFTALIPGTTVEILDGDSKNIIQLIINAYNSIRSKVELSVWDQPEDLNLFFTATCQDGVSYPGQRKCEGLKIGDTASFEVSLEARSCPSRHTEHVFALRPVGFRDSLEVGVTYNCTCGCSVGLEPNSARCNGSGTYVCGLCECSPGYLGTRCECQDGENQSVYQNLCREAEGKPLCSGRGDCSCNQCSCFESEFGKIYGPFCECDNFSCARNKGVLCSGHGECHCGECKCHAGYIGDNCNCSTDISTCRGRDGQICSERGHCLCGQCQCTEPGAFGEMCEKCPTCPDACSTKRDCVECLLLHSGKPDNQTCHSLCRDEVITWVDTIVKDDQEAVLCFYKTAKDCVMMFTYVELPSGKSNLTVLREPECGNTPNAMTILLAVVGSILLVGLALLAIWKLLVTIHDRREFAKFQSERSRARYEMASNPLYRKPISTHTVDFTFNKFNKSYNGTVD

Q: For `NCCCNC(=O)c1ccc(C(=O)NC(CC(=O)O)c2ccccc2)s1.O=C(O)C(F)(F)F` (stereo not drawn) [Compound VII, 3-{[5-(3-Amino-propylcarbamoyl)-thiophene-2-carbonyl]-amino}-3-phenyl-propionic acid trifluoroacetic acid salt], which “Incidence of lung metastasis” value [1, 2] is on record?
A: 1/10

Q: What about the “Incidence of lymph node metastasis” value [1, 2] of the same compound?
A: 2/10

Q: What about the “Incidence of lymph node metastasis” value ([1]; Group D, 50 mg/kg SC 2 times/day) of the same compound?
A: 3/10

Q: What about the “Incidence of lung metastasis” value ([1]; Group D, 50 mg/kg SC 2 times/day, trifluoroacetic acid salt, 50 mg/kg) of the same compound?
A: no lung metastasis and 0/10

Q: What about the IC50 (αvβ5) of the same compound?
A: > 10 µM

Q: And the IC50 (placental αvβ3)?
A: 6.6 µM
